{"source": "ChEMBL document CHEMBL4190264", "about": "“Phylogenomics of 2,4-Diacetylphloroglucinol-Producing Pseudomonas and Novel Antiglycation Endophytes from Piper auritum” (J Nat Prod, 2017)", "key": {"Albumin [1]": {"target": "T1, Albumin (Bos taurus, UniProt P02769)", "T1 sequence (P02769 whole entry)": "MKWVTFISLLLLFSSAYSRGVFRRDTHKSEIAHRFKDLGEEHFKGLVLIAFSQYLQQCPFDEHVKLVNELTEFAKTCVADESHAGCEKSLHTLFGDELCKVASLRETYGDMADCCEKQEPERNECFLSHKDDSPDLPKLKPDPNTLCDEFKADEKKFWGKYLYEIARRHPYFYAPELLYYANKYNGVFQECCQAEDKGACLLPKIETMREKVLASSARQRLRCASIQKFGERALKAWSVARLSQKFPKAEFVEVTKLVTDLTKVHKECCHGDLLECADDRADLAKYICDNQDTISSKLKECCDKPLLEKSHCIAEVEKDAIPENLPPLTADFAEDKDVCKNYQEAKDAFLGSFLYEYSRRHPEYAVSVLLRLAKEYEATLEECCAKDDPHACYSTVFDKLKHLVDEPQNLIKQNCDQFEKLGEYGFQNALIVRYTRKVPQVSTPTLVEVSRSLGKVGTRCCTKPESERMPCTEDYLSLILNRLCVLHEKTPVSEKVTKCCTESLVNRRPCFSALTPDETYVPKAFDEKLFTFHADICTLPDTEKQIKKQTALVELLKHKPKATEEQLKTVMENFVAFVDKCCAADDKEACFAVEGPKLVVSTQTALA", "assay": "Antiglycation activity in bovine serum albumin assessed as inhibition of advanced glycated end product formation in presence of D-glucose and ferulic acid by spectrofluorimetric analysis", "conditions": "cattle"}, "Albumin [2]": {"target": "T1, Albumin", "assay": "Antiglycation activity in bovine serum albumin assessed as inhibition of advanced glycated end product formation in presence of D-glucose by spectrofluorimetric analysis", "conditions": "for inhibition (INH): cattle"}, "Albumin [3]": {"target": "T2, Albumin (Homo sapiens, UniProt P02768)", "T2 sequence (P02768 whole entry)": "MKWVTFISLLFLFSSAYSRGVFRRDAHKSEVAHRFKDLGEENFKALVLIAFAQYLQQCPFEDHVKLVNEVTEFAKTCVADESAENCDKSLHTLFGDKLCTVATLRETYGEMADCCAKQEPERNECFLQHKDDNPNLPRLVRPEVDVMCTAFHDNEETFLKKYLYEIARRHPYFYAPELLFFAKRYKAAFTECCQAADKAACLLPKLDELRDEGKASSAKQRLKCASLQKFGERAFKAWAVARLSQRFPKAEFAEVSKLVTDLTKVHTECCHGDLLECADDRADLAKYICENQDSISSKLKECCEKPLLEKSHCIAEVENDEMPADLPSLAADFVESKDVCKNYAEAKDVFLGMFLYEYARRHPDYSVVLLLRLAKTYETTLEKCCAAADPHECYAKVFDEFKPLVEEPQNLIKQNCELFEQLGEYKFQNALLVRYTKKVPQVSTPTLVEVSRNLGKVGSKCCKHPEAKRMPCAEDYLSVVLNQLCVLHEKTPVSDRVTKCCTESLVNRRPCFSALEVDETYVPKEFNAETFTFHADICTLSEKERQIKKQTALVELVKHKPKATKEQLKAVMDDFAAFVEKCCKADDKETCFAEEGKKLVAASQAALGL", "assay": "Antiglycation activity in human serum albumin assessed as inhibition of fructosamine formation by measuring amadori products after 10 to 15 mins by NBT assay"}, "Albumin [4]": {"target": "T1, Albumin", "assay": "Antiglycation activity in bovine serum albumin assessed as inhibition of advanced glycated end product formation in presence of D-glucose and 5-hydroxyferulic acid by spectrofluorimetric analysis", "conditions": "cattle"}, "Albumin [5]": {"target": "T1, Albumin", "assay": "Antiglycation activity in bovine serum albumin assessed as inhibition of MGO-mediated protein modification after 5 days by PAGE analysis", "conditions": "cattle, 120 h"}, "Albumin [6]": {"target": "T2, Albumin", "assay": "Antiglycation activity in human serum albumin assessed as inhibition of fructosamine formation by measuring amadori products after 10 to 15 mins in presence of 5-hydroxyferulic acid by NBT assay"}, "[7]": {"assay": "Inhibition of glucose auto-oxidation after 30 mins in presence of deoxyribose by benzoate hydroxylation assay", "assay_type": "functional"}, "Albumin [8]": {"target": "T1, Albumin", "assay": "Antiglycation activity in bovine serum albumin assessed as inhibition of advanced glycated end product formation in presence of D-glucose at 10 mM by spectrofluorimetric analysis", "conditions": "cattle"}}, "note": "The source made the active and inactive calls. The rule behind the calls is not given here.", "data": [{"smiles": "COc1cc(/C=C/C(=O)O)cc(O)c1O", "values": [{"measurement": "inhibition (INH)", "setting": "Albumin [1]", "result": "Active"}, {"measurement": "inhibition (INH)", "setting": "Albumin [2]", "result": "Not Active"}]}, {"smiles": "CCCCCC/C=C\\CCCCCCCCCC(=O)O", "note": "[VACCENIC ACID]", "values": [{"measurement": "inhibition (INH)", "setting": "Albumin [2]", "result": 66, "unit": "%"}]}, {"smiles": "CC(=O)c1c(O)cc(O)c(C(C)=O)c1O", "values": [{"measurement": "inhibition (INH)", "setting": "Albumin [3]", "result": "Not Active"}, {"measurement": "inhibition (INH)", "setting": "Albumin [4]", "result": "Active"}, {"measurement": "inhibition (INH)", "setting": "Albumin [5]", "result": "Active"}, {"measurement": "inhibition (INH)", "setting": "Albumin [6]", "result": "Active"}, {"measurement": "inhibition", "setting": "[7]", "result": "Active"}, {"measurement": "EC50", "setting": "Albumin [2]", "result": 6.3, "unit": "mM"}, {"measurement": "inhibition (INH)", "setting": "Albumin [2]", "result": 83, "unit": "%"}]}, {"smiles": "COc1cc(/C=C/C(=O)O)ccc1O", "note": "[FERULATE]", "values": [{"measurement": "inhibition (INH)", "setting": "Albumin [4]", "result": "Active"}, {"measurement": "inhibition (INH)", "setting": "Albumin [2]", "result": "Not Active"}]}, {"smiles": "CCCCCCCCCCCCCCCC(=O)O", "note": "[PALMITIC ACID]", "values": [{"measurement": "inhibition (INH)", "setting": "Albumin [2]", "result": 66, "unit": "%"}]}, {"smiles": "N=C(N)NN", "note": "[PIMAGEDINE]", "values": [{"measurement": "inhibition (INH)", "setting": "Albumin [8]", "result": "Active"}, {"measurement": "EC50", "setting": "Albumin [2]", "result": 26, "unit": "mM"}]}, {"smiles": "CCCCCCCC/C=C\\CCCCCCC(=O)O", "values": [{"measurement": "inhibition (INH)", "setting": "Albumin [2]", "result": 66, "unit": "%"}]}]}
